Results from PubChem BioAssay (NCI).
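Values below derive from 48-hour exposures of cells grown in 96-well plates, with endpoints linearly interpolated between the two concentrations bracketing the appropriate inhibition level. GI50 is the concentration that inhibits growth by half. TGI marks complete inhibition of growth.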

How the values were obtained:
Experiment in all cases: NCI-60 cell line screen, 48 h
MALME-3M melanoma = system: MALME-3M melanoma
KM12 colon = system: KM12 colon
UACC-257 melanoma = system: UACC-257 melanoma
HT29 colon = system: HT29 colon
T-47D breast = system: T-47D breast
DU-145 prostate = system: DU-145 prostate
CAKI-1 renal = system: CAKI-1 renal
HS 578T breast = system: HS 578T breast
SF-295 CNS = system: SF-295 CNS
RPMI-8226 leukemia = system: RPMI-8226 leukemia
SR leukemia = system: SR leukemia
SK-MEL-28 melanoma = system: SK-MEL-28 melanoma
A498 renal = system: A498 renal
PC-3 prostate = system: PC-3 prostate
M14 melanoma = system: M14 melanoma
OVCAR-8 ovarian = system: OVCAR-8 ovarian
SN12C renal = system: SN12C renal
LOX IMVI melanoma = system: LOX IMVI melanoma
SK-MEL-2 melanoma = system: SK-MEL-2 melanoma
HOP-62 NSCLC = system: HOP-62 NSCLC
SF-539 CNS = system: SF-539 CNS
SF-268 CNS = system: SF-268 CNS
HCT-116 colon = system: HCT-116 colon
NCI-H226 lung = system: NCI-H226 lung
NCI/ADR-RES ovarian = system: NCI/ADR-RES ovarian
BT-549 breast = system: BT-549 breast
UACC-62 melanoma = system: UACC-62 melanoma
MCF7 breast = system: MCF7 breast

Cc1nc(-c2cc3ccccc3oc2=O)ccc1C(=O)/C=C/c1ccccn1
GI50 (MALME-3M melanoma): > 100 µM | TGI (MALME-3M melanoma): > 100 µM | GI50 (KM12 colon): > 100 µM | TGI (KM12 colon): > 100 µM | GI50 (UACC-257 melanoma): > 100 µM | TGI (UACC-257 melanoma): > 100 µM | GI50 (HT29 colon): > 100 µM | TGI (HT29 colon): > 100 µM | GI50 (T-47D breast): > 100 µM | TGI (T-47D breast): > 100 µM | GI50 (DU-145 prostate): > 100 µM | TGI (DU-145 prostate): > 100 µM | GI50 (CAKI-1 renal): > 100 µM | TGI (CAKI-1 renal): > 100 µM | GI50 (HS 578T breast): > 100 µM | TGI (HS 578T breast): > 100 µM | GI50 (SF-295 CNS): > 100 µM | TGI (SF-295 CNS): > 100 µM | GI50 (RPMI-8226 leukemia): 3.41 µM | TGI (RPMI-8226 leukemia): > 100 µM | GI50 (SR leukemia): 5.3 µM | TGI (SR leukemia): > 100 µM | GI50 (SK-MEL-28 melanoma): > 100 µM | TGI (SK-MEL-28 melanoma): > 100 µM | GI50 (A498 renal): > 100 µM | TGI (A498 renal): > 100 µM | GI50 (PC-3 prostate): > 100 µM | TGI (PC-3 prostate): > 100 µM | GI50 (M14 melanoma): > 100 µM | TGI (M14 melanoma): > 100 µM | GI50 (OVCAR-8 ovarian): > 100 µM | TGI (OVCAR-8 ovarian): > 100 µM | GI50 (SN12C renal): > 100 µM | TGI (SN12C renal): > 100 µM | GI50 (LOX IMVI melanoma): 3.2 µM | TGI (LOX IMVI melanoma): > 100 µM | GI50 (SK-MEL-2 melanoma): > 100 µM | TGI (SK-MEL-2 melanoma): > 100 µM | GI50 (HOP-62 NSCLC): > 100 µM | TGI (HOP-62 NSCLC): > 100 µM | GI50 (SF-539 CNS): > 100 µM | TGI (SF-539 CNS): > 100 µM | GI50 (SF-268 CNS): > 100 µM | TGI (SF-268 CNS): > 100 µM | GI50 (HCT-116 colon): 6.34 µM | TGI (HCT-116 colon): > 100 µM | GI50 (NCI-H226 lung): > 100 µM | TGI (NCI-H226 lung): > 100 µM | GI50 (NCI/ADR-RES ovarian): > 100 µM | TGI (NCI/ADR-RES ovarian): > 100 µM | GI50 (BT-549 breast): > 100 µM | TGI (BT-549 breast): > 100 µM | GI50 (UACC-62 melanoma): > 100 µM | TGI (UACC-62 melanoma): > 100 µM | GI50 (MCF7 breast): 3.72 µM | TGI (MCF7 breast): > 100 µM
